The record followed here is patent US7923434B2, “Phosphole derivatives complexed with metals, and pharmaceutical uses thereof” (Centre National de la Recherche Scientifique, priority 2004, dated 2011).

Series [1] concerns NCH89 human glioblastoma cell line. Briefly: BrdU in vitro proliferation test, NCH89. The class given is cell-based. As to conditions: BrdU incorporation. On the procedure:
(§1) Briefly, the tumour cells are cultured and duplicated in 96-well plates in RPMI 1640 medium containing 10% foetal calf serum and antibiotics (cell density: 7×10^3 cells). […] After 48 hours, the reagent 5-bromo-2′-deoxyuridine (BrdU) was added at the final concentration of 10 μM for an incubation period of 19 hours. […] Compound (7) (Au-triphenylphosphine chloride complex, (PPh3)AuCl) and nitrosourea 1,3-bis(2-chloroethyl)-1-nitrosourea (BCNU, carmustine) are positive controls already reported in the literature.

In series [2] the target is T1, WT hTrxR (Homo sapiens, UniProt Q16881).
T1 sequence (Q16881 151-649 limits assumed): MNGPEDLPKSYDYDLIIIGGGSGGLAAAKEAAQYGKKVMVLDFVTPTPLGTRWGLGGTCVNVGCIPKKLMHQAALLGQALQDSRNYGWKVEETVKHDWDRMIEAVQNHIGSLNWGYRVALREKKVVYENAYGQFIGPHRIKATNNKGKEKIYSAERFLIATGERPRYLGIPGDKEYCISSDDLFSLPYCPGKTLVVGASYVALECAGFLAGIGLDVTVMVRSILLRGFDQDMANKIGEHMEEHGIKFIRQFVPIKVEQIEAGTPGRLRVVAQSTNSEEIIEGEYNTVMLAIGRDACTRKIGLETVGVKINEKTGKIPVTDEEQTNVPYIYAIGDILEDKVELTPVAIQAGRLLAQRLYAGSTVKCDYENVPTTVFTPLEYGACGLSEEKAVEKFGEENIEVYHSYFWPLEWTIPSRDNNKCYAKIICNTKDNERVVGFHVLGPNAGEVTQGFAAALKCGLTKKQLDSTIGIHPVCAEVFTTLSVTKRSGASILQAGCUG
Briefly: Test for reduction of Trx (hTrxC72S) by TrxR, wild type. The class given is biochemical. As to conditions: 20 μM hTrxC72S; 10 min pre-incubation with 100 μM NADPH; enzyme 24 nM. From the text:
(§2) The phosphole derivatives containing gold and platinum have been identified as powerful inhibitors of human GR and TrxR (see Table 1). With either the substrate TrxC72S, or DTNB, very low IC50 values at nanomolar level—quasi-stoichiometric reaction—were obtained with wild-type human TrxR. By contrast, the IC50 values with the Sec→Cys mutant were at least 1000 times higher, proving that the selenocysteine residue is the inhibition target of human TrxR. […] A reduction of these enzymes is necessary to complete the inhibition, which proves that the active site comprising the Cys/Cys residues in the GR or Cys/Sec in the TrxR is the inactivation site. The pre-reduction of these enzymes accelerates the inhibition. The reaction between the inhibitor and these enzymes is very rapid and not precisely measurable with standard enzymology techniques. […] This competition would probably not contribute to the irreversible enzymatic inactivation.

The target in series [3] is T2, hTrxRSec→Cys (Homo sapiens, UniProt Q16881).
T2 sequence (Q16881 with tags, fused parts or gaps isoform Q16881-5 limits assumed): T1 sequence (Q16881 151-649 limits assumed) with U498C
The series is described as follows: Test for reduction of DTNB by TrxR, mutant hTrxR-Mut. The class given is biochemical. The settings on record: 3 mM DTNB; 10 min pre-incubation with 200 μM NADPH; enzyme 90.6 nM.
Excerpt: as §2

Series [4] concerns the target T1, WT hTrxR. The series is described as follows: Test for reduction of DTNB by TrxR, wild type. The class given is biochemical. As to conditions: 3 mM DTNB; 10 min pre-incubation with 200 μM NADPH; enzyme 4.8 nM.
Excerpt: as §2

For series [5], the target named is T2, hTrxRSec→Cys. Briefly: Test for reduction of Trx (hTrxC72S) by TrxR, mutant hTrxR-Mut. The settings on record: 20 μM hTrxC72S; 10 min pre-incubation with 100 μM NADPH; enzyme 1.8 μM. The class given is biochemical.
Excerpt: as §2

Series [6] addresses T3, human GR (Homo sapiens, UniProt P00390).
T3 sequence (P00390 45-522 limits assumed): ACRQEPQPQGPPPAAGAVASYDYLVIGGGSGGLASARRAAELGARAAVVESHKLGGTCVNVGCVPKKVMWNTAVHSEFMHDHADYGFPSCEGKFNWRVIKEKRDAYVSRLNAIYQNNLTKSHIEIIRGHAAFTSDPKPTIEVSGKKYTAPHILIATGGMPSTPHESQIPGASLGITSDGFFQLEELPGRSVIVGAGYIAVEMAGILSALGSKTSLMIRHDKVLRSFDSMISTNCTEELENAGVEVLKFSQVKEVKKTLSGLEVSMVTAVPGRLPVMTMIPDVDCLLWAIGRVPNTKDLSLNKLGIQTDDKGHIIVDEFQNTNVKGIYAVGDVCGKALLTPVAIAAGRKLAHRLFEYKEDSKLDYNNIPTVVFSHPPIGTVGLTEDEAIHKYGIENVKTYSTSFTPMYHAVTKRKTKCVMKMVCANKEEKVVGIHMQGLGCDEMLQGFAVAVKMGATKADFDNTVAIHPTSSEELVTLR
Briefly: Test for reduction of GSSG by GR. The class given is biochemical. The settings on record: 100 μM GSSG; 10 min pre-incubation with 100 μM NADPH.
Excerpt: as §2

For series [7], the system named is NCH37 human glioblastoma cell line. Briefly: BrdU in vitro proliferation test, NCH37. It counts as cell-based. The settings on record: BrdU incorporation. On the procedure: as §1
(In general: Incorporation of labelled thymidine or its analogues reports DNA synthesis.)

The subject of series [8] is NCH82 human glioblastoma cell line. The series is described as follows: BrdU in vitro proliferation test, NCH82. The class given is cell-based. The settings on record: BrdU incorporation. On the procedure: as §1
The nature of series [9]: Tolerability in C6 glioma-bearing rats. It counts as in vivo, rat. On the procedure:
After confirmation of the tumour growth by MRI on day 9, the rats carrying tumours were treated by intravenous injection with the compound (1) at a concentration of 25 mg/kg (n=4). The tumour growth was compared to that of the non-treated control animals (n=4). The treatment commenced on day 9 and continued on days 11 and 13. On day 15 after the implantation of the tumour cells, all the rats were sacrificed by decapitation. Under these conditions, a 44% reduction of the tumour growth was observed between days 9 and 15 at a dose of compound (1) of 25 mg/kg of body weight compared with that of the control group (FIG. 1).

Another series deals with DNA. The series is described as follows: Thermal DNA denaturation test. The class given is binding. As to conditions: tested between 0 and 20 μM. How it is done: In addition to its major activity on human disulphide reductases, glutathione reductase and thioredoxin reductase, the binding of complex (1) to DNA was measured in thermal DNA denaturation tests.
For series [10], the target named is T3, human GR. Briefly: Binding of (1) to human GR: titration and initial-speed kinetics. How it is done:
The stoichiometry of binding of (1) to human GR was determined by titration. Based on these experiments, (1) binds very tightly to the binding site of the GSSG of each human GR sub-unit. […] Although numerous hydrophobic inhibitors of the human GR and of the GR of Plasmodium falciparum are bound in the cavity between the two sub-units of the dimer with a stoichiometry of 0.5 per sub-unit, this is not the case for the inhibitor (1). The stoichiometry of 1.25 equivalents of (1) per FAD or per sub-unit of human GR can be explained by the presence of a second molecule of (1) bound less tightly to another position in the human GR, confirming the 3D structure of the complex GR-(1). […] The inactivation mechanism of human GR therefore involves an S—Au(I)—S coordination and the loss of the phosphole ligand; • the second site for the metallo-phosphole (1) is the Cys284 exposed to the solvent, at 23 Å of the active site and located in a hydrophobic cavity. In this case, the sulphur atom of the Cys284 remains bound to the Au-phosphole entity. […]

Molecules are shown by their SMILES. Changes are numbered by the printed parent chain.

The term IC50 denotes the concentration at which inhibition is half-maximal. In the case of `c1ccc(-p2c(-c3ccccn3)c3c(c2-c2cccs2)CCCC3)cc1` (centres unmarked) [Compound 6], inhibition in [1] was half-maximal at 8.5 ± 0.5 µM (IC50).

With `[Cl][Au][PH]1(c2ccccc2)C(c2ccccn2)=C2CCCCC2=C1c1cccs1` [Compound 2], the IC50 at WT hTrxR [2] came to 7 nM; at hTrxRSec→Cys [3] it was 2500 nM; at WT hTrxR [4], 1 nM; against hTrxRSec→Cys [5] it was 1400 nM; against human GR [6], 2 nM.

As for `[Cl][Pt-2]1([Cl])[n+]2ccccc2C2=C3CCCCC3=C(c3cccs3)[P+]21c1ccccc1` (centres unmarked) [Compound 4], the half-inhibitory concentration (IC50) on WT hTrxR [2] was determined as 8 nM; at hTrxRSec→Cys [3], 24000 nM; at WT hTrxR [4], 1 nM; at hTrxRSec→Cys [5] it was 2300 nM; against human GR [6], 400 nM.

As for `c1ccc(-p2c(-c3ccccn3)c3c(c2-c2ccccn2)CCCC3)cc1` [Compound 5], the IC50 in series [1] is 6.7 ± 0.3 µM.

Turning to `O=NN(CCCl)C(=O)NCCCl` [carmustine, 1,3-bis(2-chloroethyl)-1-nitrosourea], the IC50 in series [7] was 300 ± 12 µM; in [8], 385 ± 25 µM; in [1], 615 ± 38 µM.

Usually Kd stands for a measure of binding affinity in units of concentration. Take `[Cl][Au][PH]1(c2ccccc2)C(c2ccccn2)=C2CCCCC2=C1c1ccccn1` [Compound 1]: in [9] (25 mg/kg), the “tolerability of the therapy” value is given as “well tolerated”. Further, the death from treatment result in series [9] (25 mg/kg i.v., C6 glioma rats) is “no animal died”. In [9] (25 mg/kg i.v., C6 glioma rats), the “total body weight, treated vs control” value was “no significant difference”. The IC50 is 7 nM on WT hTrxR [2]; 2500 nM at hTrxRSec→Cys [3]; 0.8 nM on WT hTrxR [4]; 800 nM on hTrxRSec→Cys [5]; 1 nM against human GR [6]. Further, the “binding to DNA: concentration from which active” value in the series on DNA stood at 1 µM. The Kd on human GR [10] (kinetics at initial speed with 0.5-2.0 μM GSSG, read-out: disassociation constant Kd=Ki) is 460 nM. The stoichiometry of binding at human GR [10] (titration, differences in extinction coefficient at selected wavelengths) is on record as 1.25 equivalents of (1) per FAD or per sub-unit of human GR.
